Test results taken from patent US6399643B1, “Spiroimidazolidine derivatives, their preparation, their use and pharmaceutical preparations formed therefrom” (Aventis Pharma Deutschland GmbH, priority 1999, dated 2002).
Counter-ions that a name gives are not always drawn.

Target: T1, interaction between VCAM-1 and VLA-4 (Homo sapiens, UniProt P05556+P13612)
T1 construct: supplied in their natural form as surface molecules on human U937 cells; host or cells: human U937 cells (VLA-4, endogenous); the partner hVCAM-1(1-3)-IgG was made in house in transfected COS cells (ATCC CRL1651) and used as culture supernatant
T1 sequence (P13612 34-1032): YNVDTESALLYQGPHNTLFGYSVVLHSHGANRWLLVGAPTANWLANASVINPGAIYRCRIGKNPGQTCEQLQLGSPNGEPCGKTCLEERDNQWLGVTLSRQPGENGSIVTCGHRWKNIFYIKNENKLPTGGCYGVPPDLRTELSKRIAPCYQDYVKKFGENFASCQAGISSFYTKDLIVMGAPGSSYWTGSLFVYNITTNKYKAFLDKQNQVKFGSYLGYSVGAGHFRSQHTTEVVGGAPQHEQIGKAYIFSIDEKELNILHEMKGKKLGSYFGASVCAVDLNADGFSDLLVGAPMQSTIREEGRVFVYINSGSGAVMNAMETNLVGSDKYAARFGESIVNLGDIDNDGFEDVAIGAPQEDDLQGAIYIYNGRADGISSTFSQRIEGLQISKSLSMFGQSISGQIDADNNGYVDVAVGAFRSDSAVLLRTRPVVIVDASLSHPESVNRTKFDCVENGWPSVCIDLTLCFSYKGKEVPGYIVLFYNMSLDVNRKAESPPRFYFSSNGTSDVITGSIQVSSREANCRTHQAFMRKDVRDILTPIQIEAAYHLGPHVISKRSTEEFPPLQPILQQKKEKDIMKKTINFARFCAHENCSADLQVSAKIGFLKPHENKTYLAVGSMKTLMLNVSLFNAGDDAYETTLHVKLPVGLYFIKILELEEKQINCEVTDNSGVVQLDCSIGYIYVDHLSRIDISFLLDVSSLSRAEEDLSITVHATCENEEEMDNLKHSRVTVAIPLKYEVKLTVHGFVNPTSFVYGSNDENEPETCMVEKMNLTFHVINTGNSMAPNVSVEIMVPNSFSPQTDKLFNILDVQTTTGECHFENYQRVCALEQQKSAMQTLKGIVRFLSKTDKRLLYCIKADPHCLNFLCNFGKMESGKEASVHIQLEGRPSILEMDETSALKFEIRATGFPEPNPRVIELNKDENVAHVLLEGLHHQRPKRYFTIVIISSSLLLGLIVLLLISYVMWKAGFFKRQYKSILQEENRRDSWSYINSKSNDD
T1 sequence (P05556 21-798): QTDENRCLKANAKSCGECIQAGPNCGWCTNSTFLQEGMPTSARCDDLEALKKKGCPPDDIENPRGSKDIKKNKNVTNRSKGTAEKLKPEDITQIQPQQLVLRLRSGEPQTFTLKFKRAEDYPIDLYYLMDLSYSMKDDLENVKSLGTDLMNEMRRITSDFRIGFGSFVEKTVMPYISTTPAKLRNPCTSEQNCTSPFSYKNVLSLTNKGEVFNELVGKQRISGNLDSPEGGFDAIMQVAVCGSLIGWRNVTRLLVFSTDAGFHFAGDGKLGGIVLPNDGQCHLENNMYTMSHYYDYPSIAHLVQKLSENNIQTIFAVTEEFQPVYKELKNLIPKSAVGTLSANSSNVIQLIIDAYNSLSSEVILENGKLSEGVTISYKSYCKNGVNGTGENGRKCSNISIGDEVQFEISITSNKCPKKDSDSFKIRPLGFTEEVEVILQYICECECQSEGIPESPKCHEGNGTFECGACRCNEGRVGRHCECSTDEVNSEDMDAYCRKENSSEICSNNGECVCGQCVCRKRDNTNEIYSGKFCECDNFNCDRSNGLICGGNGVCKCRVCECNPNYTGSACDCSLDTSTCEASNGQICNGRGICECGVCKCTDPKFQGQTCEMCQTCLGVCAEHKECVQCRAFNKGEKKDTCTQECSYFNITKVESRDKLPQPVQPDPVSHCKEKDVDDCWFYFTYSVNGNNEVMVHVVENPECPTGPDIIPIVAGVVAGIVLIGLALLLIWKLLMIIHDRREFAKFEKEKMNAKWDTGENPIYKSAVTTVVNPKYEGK
Experiment: U937/VCAM-1 cell adhesion test (adhesion of U937 cells to hVCAM-1(1-3)-IgG)
Type: cell-based
Conditions: inhibition of adhesion of human U937 cells (ATCC CRL 1593) to hVCAM-1(1-3)-IgG
From the text: A) U937/VCAM-1 Cell Adhesion Test
The test method used for the activity of the compounds of the formula I on the interaction between VCAM-1 and VLA-4 is the assay described below, which is specific for this interaction. The cellular binding components, that is the VLA-4 integrins, are supplied in their natural form as surface molecules on human U937 cells (ATCC CRL 1593), which belong to the leukocytes group. The specific binding components used are genetically engineered recombinant soluble fusion proteins, consisting of the extracytoplasmic domain of human VCAM-1 and the constant region of a human immunoglobulin of the subclass IgG1.
Assay for the Measurement of the Adhesion of U937 Cells (ATCC CRL 1593) to hVCAM-1 (1-3)-IgG
1. Preparation of Human VCAM-1(1-3)-IgG and Human CD4-IgG
A genetic construct for the expression of the extracellular domain of human VCAM-1, combined with the genetic sequence of the heavy chain of human immunoglobulin IgG1 (hinge, CH2 and CH3 regions) (from Brian Seed, Massachusetts General Hospital, Boston, USA; cf. Damle and Aruffo, Proc. Natl. Acad. Sci. USA 1991, 88, 6403), was employed. The soluble fusion protein hVCAM-1(1-3)-IgG contained the three aminoterminal extracellular immunoglobulin-like domains of human VCAM-1 (Damle and Aruffo, Proc. Natl. Acad. Sci. USA 1991, 88, 6403). CD4-IgG (Zettlmeissl et al., DNA and Cell Biology 1990, 9, 347) served as a fusion protein for negative controls. The recombinant proteins were expressed as soluble proteins after DEAE/dextran-mediated DNA transfection in COS cells (ATCC CRL1651) according to standard procedures (Ausubel et al., Current protocols in molecular biology, John Wiley & Sons, Inc., 1994).
2. Assay for the Measurement of the Adhesion of U937 Cells to hVCAM-1(1-3)-IgG
2.1 96-well microtiter test plates (Nunc Maxisorb) were incubated at room temperature for 1 hour with 100 μl/well of a goat-anti-human IgG antibody solution (10 μg/ml in 50 mM tris, pH 9.5). After removal of the antibody solution, washing was carried out once with PBS.
2.2 150 μl/well of a blocking buffer (1% BSA in PBS) were incubated on the plates at room temperature for 0.5 hour. After removal of the blocking buffer, washing was carried out once with PBS.
2.3 100 μl per well of a cell culture supernatant of transfected COS cells were incubated on the plates at room temperature for 1.5 hours. The COS cells were transfected with a plasmid which codes for the three N-terminal immunoglobulin-like domains of VCAM-1, coupled to the Fc portion of human IgG1 (hVCAM-1 (1-3)-IgG). The content of hVCAM-1(1-3)-IgG was about 0.5-1 μg/ml. After removing the culture supernatant, washing was carried out once with PBS.
2.4 The plates were incubated at room temperature for 20 minutes with 100 μl/well of Fc receptor blocking buffer (1 mg/ml of γ-globulin, 100 mM NaCl, 100 μM MgCl2, 100 μM MnCl2, 100 μM CaCl2, 1 mg/ml of BSA in 50 mM HEPES, pH 7.5). After removal of the Fc receptor blocking buffer, washing was carried out once with PBS.
2.5 20 μl of binding buffer (100 μM NaCl, 100 μM MgCl2, 100 μM MnCl2, 100 μM CaCl2, 1 mg/ml of BSA in 50 mM HEPES, pH 7.5) were initially introduced, and the substances to be tested were added in 10 μl of binding buffer and incubated for 20 minutes. The controls used were antibodies against VCAM-1(BBT, No. BBA6) and against VLA-4(Immunotech, No. 0764).
2.6 U937 cells were incubated in Fc receptor blocking buffer for 20 minutes and then pipetted in at a concentration of 1×10^6/ml and in an amount of 100 μl per well ([…]).
2.7 The plates were slowly immersed at an angle of 45° in stop buffer (100 mM NaCl, 100 μM MgCl2, 100 μM MnCl2, 100 μM CaCl2 in 25 mM Tris, pH 7.5) and shaken off. The process was repeated.
2.8 50 μl/well of a dye solution ([…] of Hoechst Dye 33258, 4% formaldehyde, 0.5% Triton X-100 in PBS) were then incubated on the plates for 15 minutes. […]

| SMILES | IC50 [nM] |
| --- | --- |
| CC(C)C[C@@H](C(=O)N[C@H](C)CC(=O)O)N1C(=O)N(Cc2ccc(NC(=O)Nc3ccccc3)cc2)C2(CCCCC2)C1=O [Example 3, (R)-3-((S)-2-(4,4-Pentamethylene-3-(4-(3-phenylureido)benzyl)-2,5-dioxoimidazolidin-1-yl)-2-(2-methylpropyl)acetylamino)-3-methylpropionic acid] | 17 |
| CC(C)C[C@H](CC(=O)O)NC(=O)[C@H](CC(C)C)N1C(=O)N(Cc2ccc(NC(=O)Nc3ccccc3)cc2)C2(CCCCC2)C1=O [Example 4, (R)-3-((S)-2-(4,4-Pentamethylene-3-(4-(3-phenylureido)benzyl)-2,5-dioxoimidazolidin-1-yl)-2-(2-methylpropyl)acetylamino)-3-(2-methylpropyl)propionic acid] | 85.4 |
| Cc1ccccc1NC(=O)Nc1ccc(CN2C(=O)N([C@@H](CC(C)C)C(=O)N[C@@H](CC(=O)O)c3ccccc3)C(=O)C23CCCCC3)cc1 [Example 8, (S)-3-((S)-2-(4,4-Pentamethylene-3-(4-(3-(2-methylphenyl)ureido)benzyl)-2,5-dioxoimidazolidin-1-yl)-2-(2-methylpropyl)acetylamino)-3-phenylpropionic acid] | 3.2 |
| Cc1ccccc1NC(=O)Nc1ccc(CN2C(=O)N([C@@H](CC(C)C)C(=O)N[C@H](C)CC(=O)O)C(=O)C23CCCCC3)cc1 [Example 9, (R)-3-((S)-2-(4,4-Pentamethylene-3-(4-(3-(2-methylphenyl)ureido)benzyl)-2,5-dioxoimidazolidin-1-yl)-2-(2-methylpropyl)acetylamino)-3-methylpropionic acid] | 2.2 |
| Cc1ccccc1NC(=O)Nc1ccc(CN2C(=O)N([C@@H](CC(C)C)C(=O)N[C@@H](CC(=O)O)c3ccccc3)C(=O)C23CCCCC3)cc1 [Example 23, (S)-3-((S)-2-(4,4-Pentamethylene-3-(4-(3-(2-methylphenyl)ureido)benzyl)-2,5-dioxoimidazolidin-1-yl)-2-(2-methylpropyl)acetylamino)-3-phenylpropionic acid tromethamine salt] | 5.5 |
| Cc1ccccc1NC(=O)Nc1ccc(CN2C(=O)N([C@@H](CC(C)C)C(=O)N[C@H](C)CC(=O)O)C(=O)C23CCCCC3)cc1 [Example 24, (R)-3-((S)-2-(4,4-Pentamethylene-3-(4-(3-(2-methylphenyl)ureido)benzyl)-2,5-dioxoimidazolidin-1-yl)-2-(2-methylpropyl)acetylamino)-3-methylpropionic acid tromethamine salt] | 1.7 |
| COc1cccc([C@H](CC(=O)O)NC(=O)[C@H](CC(C)C)N2C(=O)N(Cc3ccc(NC(=O)Nc4ccccc4C)cc3)C3(CCCCC3)C2=O)c1 [Example 25, (S)-3-((S)-2-(4,4-Pentamethylene-3-(4-(3-(2-methylphenyl)ureido)benzyl)-2,5-dioxoimidazolidin-1-yl)-2-(2-methylpropyl)acetylamino)-3-(3-methoxyphenyl)propionic acid] | 1.1 |

Continued, values first:

| IC50 [nM] | SMILES |
| --- | --- |
| 3.2 | CC(C)C[C@@H](C(=O)N[C@@H](CC(=O)O)c1ccccc1)N1C(=O)N(Cc2ccc(NC(=O)Nc3ccccc3)cc2)C2(CCCCC2)C1=O [Example 1, (S)-3-((S)-2-(4,4-Pentamethylene-3-(4-(3-phenylureido)benzyl)-2,5-dioxoimidazolidin-1-yl)-2-(2-methylpropyl)acetylamino)-3-phenylpropionic acid] |
| 4.5 | CC(C)C[C@@H](C(=O)N[C@@H](CC(=O)O)c1ccccc1)N1C(=O)N(Cc2ccc(NC(=O)Nc3ccccc3)cc2)C2(CCCCC2)C1=O [Example 2, (S)-3-((S)-2-(4,4-Pentamethylene-3-(4-(3-phenylureido)benzyl)-2,5-dioxoimidazolidin-1-yl)-2-(2-methylpropyl)acetylamino)-3-phenylpropionic acid tromethamine salt] |
| 4 | COc1ccc([C@H](CC(=O)O)NC(=O)[C@H](CC(C)C)N2C(=O)N(Cc3ccc(NC(=O)Nc4ccccc4)cc3)C3(CCCCC3)C2=O)cc1 [Example 16, (S)-3-((S)-2-(4,4-Pentamethylene-3-(4-(3-phenylureido)benzyl)-2,5-dioxoimidazolidin-1-yl)-2-(2-methylpropyl)acetylamino)-3-(4-methoxyphenyl)propionic acid] |
| 1.9 | COc1ccc([C@H](CC(=O)O)NC(=O)[C@H](CC(C)C)N2C(=O)N(Cc3ccc(NC(=O)Nc4ccccc4)cc3)C3(CCCCC3)C2=O)cc1 [Example 17, (S)-3-((S)-2-(4,4-Pentamethylene-3-(4-(3-phenylureido)benzyl)-2,5-dioxoimidazolidin-1-yl)-2-(2-methylpropyl)acetylamino)-3-(4-methoxyphenyl)propionic acid tromethamine salt] |
| 2.4 | COc1ccc([C@H](CC(=O)O)NC(=O)[C@H](CC(C)C)N2C(=O)N(Cc3ccc(NC(=O)Nc4ccccc4)cc3)C3(CCCCC3)C2=O)c(OC)c1 [Example 18, (S)-3-((S)-2-(4,4-Pentamethylene-3-(4-(3-phenylureido)benzyl)-2,5-dioxoimidazolidin-1-yl)-2-(2-methylpropyl)acetylamino)-3-(2,4-dimethoxyphenyl)propionic acid] |
| 3 | COc1ccc([C@H](CC(=O)O)NC(=O)[C@H](CC(C)C)N2C(=O)N(Cc3ccc(NC(=O)Nc4ccccc4)cc3)C3(CCCCC3)C2=O)c(OC)c1 [Example 19, (S)-3-((S)-2-(4,4-Pentamethylene-3-(4-(3-phenylureido)benzyl)-2,5-dioxoimidazolidin-1-yl)-2-(2-methylpropyl)acetylamino)-3-(2,4-dimethoxyphenyl)propionic acid tromethamine salt] |
| 1.6 | COc1ccc([C@H](CC(=O)O)NC(=O)[C@H](CC(C)C)N2C(=O)N(Cc3ccc(NC(=O)Nc4ccccc4)cc3)C3(CCCCC3)C2=O)cc1OC [Example 20, (S)-3-((S)-2-(4,4-Pentamethylene-3-(4-(3-phenylureido)benzyl)-2,5-dioxoimidazolidin-1-yl)-2-(2-methylpropyl)acetylamino)-3-(3,4-dimethoxyphenyl)propionic acid] |
| 3 | COc1ccc([C@H](CC(=O)O)NC(=O)[C@H](CC(C)C)N2C(=O)N(Cc3ccc(NC(=O)Nc4ccccc4)cc3)C3(CCCCC3)C2=O)cc1OC [Example 21, (S)-3-((S)-2-(4,4-Pentamethylene-3-(4-(3-phenylureido)benzyl)-2,5-dioxoimidazolidin-1-yl)-2-(2-methylpropyl)acetylamino)-3-(3,4-dimethoxyphenyl)propionic acid tromethamine salt] |
| 6.7 | COc1cccc([C@H](CC(=O)O)NC(=O)[C@H](CC(C)C)N2C(=O)N(Cc3ccc(NC(=O)Nc4ccccc4)cc3)C3(CCCCC3)C2=O)c1 [Example 22, (S)-3-((S)-2-(4,4-Pentamethylene-3-(4-(3-phenylureido)benzyl)-2,5-dioxoimidazolidin-1-yl)-2-(2-methylpropyl)acetylamino)-3-(3-methoxyphenyl)propionic acid] |
